PubChem BioAssay (NCI)
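Assay format: 96-well plates, 48-hour exposure. TGI: total growth inhibition.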

Columns and labels:
Experiment in all cases: NCI-60 cell line screen, 48 h
786-0 renal = test system: 786-0 renal
A498 renal = test system: A498 renal
A549 NSCLC = test system: A549 NSCLC
ACHN renal = test system: ACHN renal
CAKI-1 renal = test system: CAKI-1 renal
CCRF-CEM leukemia = test system: CCRF-CEM leukemia
COLO 205 colon = test system: COLO 205 colon
DLD-1 colon = test system: DLD-1 colon
DMS 273 small cell lung = test system: DMS 273 small cell lung
EKVX NSCLC = test system: EKVX NSCLC
HCC-2998 colon = test system: HCC-2998 colon
HCT-116 colon = test system: HCT-116 colon
HCT-15 colon = test system: HCT-15 colon
HL-60(TB) leukemia = test system: HL-60(TB) leukemia
HOP-18 NSCLC = test system: HOP-18 NSCLC
HOP-62 NSCLC = test system: HOP-62 NSCLC
HOP-92 NSCLC = test system: HOP-92 NSCLC
HT29 colon = test system: HT29 colon
IGROV1 ovarian = test system: IGROV1 ovarian
K-562 leukemia = test system: K-562 leukemia
KM12 colon = test system: KM12 colon
KM20L2 colon = test system: KM20L2 colon
LOX IMVI melanoma = test system: LOX IMVI melanoma
LXFL 529 NSCLC = test system: LXFL 529 NSCLC
M14 melanoma = test system: M14 melanoma
M19-MEL melanoma = test system: M19-MEL melanoma
MALME-3M melanoma = test system: MALME-3M melanoma
MOLT-4 leukemia = test system: MOLT-4 leukemia
NCI-H226 lung = test system: NCI-H226 lung
NCI-H23 lung = test system: NCI-H23 lung
NCI-H460 lung = test system: NCI-H460 lung
NCI-H522 lung = test system: NCI-H522 lung
OVCAR-3 ovarian = test system: OVCAR-3 ovarian
OVCAR-4 ovarian = test system: OVCAR-4 ovarian
OVCAR-5 ovarian = test system: OVCAR-5 ovarian
OVCAR-8 ovarian = test system: OVCAR-8 ovarian
RPMI-8226 leukemia = test system: RPMI-8226 leukemia
RXF 393 renal = test system: RXF 393 renal
SF-268 CNS = test system: SF-268 CNS
SF-295 CNS = test system: SF-295 CNS
SF-539 CNS = test system: SF-539 CNS
SK-MEL-2 melanoma = test system: SK-MEL-2 melanoma
SK-MEL-28 melanoma = test system: SK-MEL-28 melanoma
SK-MEL-5 melanoma = test system: SK-MEL-5 melanoma
SK-OV-3 ovarian = test system: SK-OV-3 ovarian
SN12C renal = test system: SN12C renal
SNB-19 CNS = test system: SNB-19 CNS
SNB-75 CNS = test system: SNB-75 CNS
SNB-78 CNS = test system: SNB-78 CNS
SW-620 colon = test system: SW-620 colon
TK-10 renal = test system: TK-10 renal
U251 CNS = test system: U251 CNS
UACC-257 melanoma = test system: UACC-257 melanoma
UACC-62 melanoma = test system: UACC-62 melanoma
UO-31 renal = test system: UO-31 renal
XF 498 CNS = test system: XF 498 CNS
DMS 114 small cell lung = test system: DMS 114 small cell lung

Measured: TGI

O=C(Nc1nc2ncn(CCNCCn3cnc4nc(NC(=O)c5ccccc5)[nH]c(=O)c43)c2c(=O)[nH]1)c1ccccc1
not listed: DMS 114 small cell lung
> 100 µM: all other assays above

CCCOP1(=O)C=CC(Cl)=C(C)C1 (centres undefined)
76 µM: 786-0 renal
42.8 µM: SK-MEL-28 melanoma
47.9 µM: DLD-1 colon
> 89.5 µM: SK-MEL-2 melanoma
52.1 µM: MALME-3M melanoma
64.3 µM: UACC-257 melanoma
> 93.1 µM: XF 498 CNS
89.3 µM: DMS 114 small cell lung
> 75.2 µM: OVCAR-3 ovarian
22.2 µM: MOLT-4 leukemia
50.4 µM: KM12 colon
33.9 µM: COLO 205 colon
> 66.5 µM: ACHN renal
47.5 µM: OVCAR-8 ovarian
> 61.1 µM: LXFL 529 NSCLC
> 61.3 µM: M14 melanoma
33.5 µM: HCT-116 colon
42.2 µM: SW-620 colon
> 95.9 µM: CAKI-1 renal
19.7 µM: CCRF-CEM leukemia
31.6 µM: NCI-H522 lung
39.7 µM: HCT-15 colon
> 88 µM: EKVX NSCLC
33.4 µM: RXF 393 renal
52.2 µM: UACC-62 melanoma
60.1 µM: RPMI-8226 leukemia
> 31.6 µM: K-562 leukemia
> 68.2 µM: SF-539 CNS
not listed: DMS 273 small cell lung | HL-60(TB) leukemia | M19-MEL melanoma | NCI-H226 lung
> 100 µM: all other assays above
